Data as given in patent US20230095912A1, “Composition and Methods for Selective Degradation of Engineered Proteins” (Celgene Corporation, priority 2021, published 2023).
Read-outs that look alike come from different tables or passages of the source.

Assays:
[1] = molecular target: T1, Helios (Homo sapiens, UniProt Q96SW2+Q9UKS7); test: Helios HiBit degradation in Jurkat cells; assay type: cell-based
T1 construct: endogenous in cells; host or cells: Jurkat/Helios/HiBit cells (CRISPR/Cas9 knock-in)
Experimental: For Helios, a stable Jurkat cell line was engineered using CRISPR/Cas9 to insert an in-frame HiBit tag into the carboxy-terminal reading frame of the IKZF2 gene. Test compounds were transferred to 1536 well plates using an acoustic dispenser, and Jurkat/Helios/HiBit cells in DMEM/10% FCS were plated at 10,000 cells/well in a final volume of 5 ul. Cells were incubated at 37C, 95% RH for 18 hr. Luciferase activity was measured by adding 2 ul/well of Nano-Glo reagent (Promega), incubating at RT for 30 min, and reading luminescence on a microtiter plate reader.
All substrate degradation curves were processed and evaluated using ActivityBase (IDBS), a data analysis software package. Ymin is minimum percent protein remaining.

[2] = molecular target: T2, IKZF1 ZNF2_3 Q1F tagged CD19 CAR (Homo sapiens, UniProt Q13422, Q146F); test: CRBN and ubiquitin-proteasome pathway dependence of Q1F-tagged CAR degradation in Jurkat cells; assay type: cell-based; parameters: tagged CAR remaining / levels of tagged CAR: dose or concentration left out as unconfirmed; details: Jurkat CRBN KO cells, 1 hour
T2 construct: expressed in transfected cells; host or cells: Jurkat wild type, Jurkat CRBN knockout, Jurkat reporter line; lentiviral transduction
Experimental: The dependence of Q1F-degron-tagged CAR degradation on CRBN and ubiquitin proteolytic pathway were assessed. CD19-targeting CAR was tagged with either IKZF1 ZNF2_3 Q1F (SEQ ID NO: 19) or Q1F/G6N (SEQ ID NO: 59). Lentiviral vectors containing these tagged CARs were then transduced into wildtype (WT) or cereblon (CRBN) knockout (KO) Jurkat cells.
Next, dependence of CAR degradation on the ubiquitin-proteosome pathway was tested by treating WT Jurkats transduced with tagged CAR for 2 hours with DMSO, 20 nM or 200 nM Compound C alone, or alongside either 2 μM of the NEDD8 E1 enzyme inhibitor MLN4924 or 2 μM of proteasome blocker Bortezomib (FIG. 11C).

[3] = molecular target: T3, ePL-tagged CK1a (Homo sapiens, UniProt P48729+Q96SW2); test: ePL-tagged substrate degradation in MDS-L cells; assay type: cell-based
T3 construct: expressed in transfected cells
Experimental: DF15 multiple myeloma cells stably expressing ePL-tagged Aiolos, Ikaros, or GSPT1, and MDS-L cells stably expressing ePL-tagged CK1a were generated via lentiviral infection with pLOC-ePL-Aiolos (or Ikaros, GSPT1, or CK1a). […] Compounds were dispensed by an acoustic dispenser (ATS acoustic transfer system from EDC Biosystems) into a 384-well plate in a 10-point dose response curve using 3-fold dilutions starting at 10 μM and going down to […]. Then, 25 μL of media (RPMI-1640+10% heat inactivated FBS+25 mM Hepes+1 mM Na pyruvate+1× NEAA+1×Pen Strep Glutamine) containing 5000 of DF15 or MSD-L cells was dispensed per well. Assay plates were incubated at 37° C. with 5% CO2 for 4 hours except 20 hours for GSPT1. After incubation, 25 μL of the InCELL Hunter detection reagent working solution (DiscoverX, catalogue no. 96-0002, Fremont, Calif.) was added to each well and incubated at room temperature for 60 min protected from light. After 60 min, luminescence was read on an Envision or PHERAstar luminescence reader.
To determine the EC50 value of a compound for the degradation of a given substrate (concentration of compound that achieves half the maximum degradation observed), a four-parameter logistic model (sigmoidal dose—response model) (FIT=(A+{(B−A)/1+[(C/x)D]})) where C is the inflection point (EC50), D is the […], and A and B are the low and high limits of the fit, respectively) was used. All substrate degradation curves were processed and evaluated using ActivityBase (IDBS), a data analysis software package. Ymin is minimum percent protein remaining.

[4] = tested on: CD19 CARs tagged with IKZF1 ZNF2_ZNF3 Q1F; test: Small-molecule screen: Q1F degron-tagged CD19 CAR levels in Jurkat cells, flow cytometry; assay type: cell-based, human; details: versus Helios, Aiolos, Ikaros, GSPT1, CK1a
[5] = molecular target: T4, CD19 CARs tagged with IKZF1 ZNF2_ZNF3 Q1F (Homo sapiens, UniProt Q13422, Q146F); test: as above; assay type: cell-based
T4 construct: EC50 (Q1F degron); other: Jurkat cells, 18 hours, CAR levels normalized to no drug; Ymin (Q1F degron); Ymin (%); minimum percent protein remaining; Nluc reporter
Experimental: A set of potential degron-targeting compounds was screened against the Q1F degron, resulting in a set of potent degron/small-molecule pairs. Lentiviral vectors containing CD19 CARs tagged with IKZF1 ZNF2_ZNF3 Q1F Nluc were transduced into Jurkat cells. The CD19 CAR was similar to the CD19 CAR in Example 2, but comprising the ZNF2_ZNF3 Q1F degron (SEQ ID NO: 19). Transduced cells were treated with a titration of each small molecule or no drug and then incubated at 37° C. for 18 hours. Cells were washed and stained with appropriate staining reagent to measure CAR levels. The cells were incubated at 4° C. in the staining reagents for 20 mins and then washed 3 times before being read on the flow cytometer. CAR levels were normalized to cells that had not been treated with drug. EC50 and Ymin values were calculated using the resulting titration curve. This identified small molecules that potently degraded the Q1F degron-tagged CARs (Table 1).

[6] = tested on: H-1975 ROR1 expressing target cell line; test: Primary CAR T effector function (tumor killing, cytokine production) in co-culture; assay type: cell-based; details: 1:4 effector:target, 24 hours, different concentrations
Experimental: (§1) The ability to use compounds to titrate primary CAR T effector function by degrading IKZF1 ZNF2_3 Q1F tagged anti-ROR1 CAR (FIG. 13A) was evaluated. The CAR included similar transmembrane, costimulatory, and signaling domains as the CD19 CAR, but with an anti-ROR1 scFv. A lentiviral vector encoding ZNF2_3 Q1F tagged or untagged anti-ROR1 CAR was transduced into activated primary T cells. Transduced cells were expanded for 10 days in media supplemented with IL2, IL7, and IL15, then frozen. Prior to the experiment, cells were thawed and allowed to rest in media with a dose titration of Compound C or without drug. […] To determine the impacts of CAR degradation on CAR T activity, cells were then co-cultured with a Nuclight red labeled H-1975 ROR1 expressing target cell line at a 1:4 effector:target cell ratio. Co-cultures were placed in the Incucyte for 24 hours to monitor tumor killing via Nuclight red signal (FIG. 14A), and supernatants were collected to measure proinflammatory cytokine production by MSD (FIG. 14B-14D; IL-2, TNFα, and IFNγ).

[7] = tested on: IKZF1 ZNF2_3 Q1F tagged anti-ROR1 CAR; test: CAR surface levels in primary T cells, flow cytometry; assay type: cell-based, human; details: dose titration
Experimental: as §1

T4 sequence (Q13422 whole entry Q146F): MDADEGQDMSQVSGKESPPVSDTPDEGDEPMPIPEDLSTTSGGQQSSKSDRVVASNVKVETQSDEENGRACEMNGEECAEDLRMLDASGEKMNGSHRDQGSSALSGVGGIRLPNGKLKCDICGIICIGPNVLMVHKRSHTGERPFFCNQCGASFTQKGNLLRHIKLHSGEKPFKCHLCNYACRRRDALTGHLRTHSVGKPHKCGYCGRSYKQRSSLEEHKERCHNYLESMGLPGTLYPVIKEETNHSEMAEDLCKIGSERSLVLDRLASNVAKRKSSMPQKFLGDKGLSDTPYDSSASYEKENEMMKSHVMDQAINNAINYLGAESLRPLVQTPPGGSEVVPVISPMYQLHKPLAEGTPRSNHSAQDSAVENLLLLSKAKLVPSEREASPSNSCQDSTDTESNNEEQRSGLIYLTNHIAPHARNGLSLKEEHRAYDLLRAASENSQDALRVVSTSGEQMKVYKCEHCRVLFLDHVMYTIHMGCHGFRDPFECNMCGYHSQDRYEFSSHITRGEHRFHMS
T1 sequence (Q9UKS7 whole entry): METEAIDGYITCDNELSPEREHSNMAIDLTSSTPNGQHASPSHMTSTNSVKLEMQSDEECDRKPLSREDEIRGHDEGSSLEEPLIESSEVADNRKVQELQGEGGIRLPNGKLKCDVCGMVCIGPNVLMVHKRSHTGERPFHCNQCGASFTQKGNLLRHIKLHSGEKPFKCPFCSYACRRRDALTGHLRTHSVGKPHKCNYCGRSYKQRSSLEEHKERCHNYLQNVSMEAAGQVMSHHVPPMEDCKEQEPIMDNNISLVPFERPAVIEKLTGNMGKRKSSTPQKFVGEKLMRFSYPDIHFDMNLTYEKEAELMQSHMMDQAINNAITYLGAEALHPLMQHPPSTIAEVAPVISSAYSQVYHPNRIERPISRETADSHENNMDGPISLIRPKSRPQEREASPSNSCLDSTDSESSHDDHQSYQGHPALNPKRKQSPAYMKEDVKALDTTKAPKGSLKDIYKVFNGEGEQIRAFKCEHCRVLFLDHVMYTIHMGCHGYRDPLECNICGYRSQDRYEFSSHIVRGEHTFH
T1 sequence (Q96SW2 whole entry): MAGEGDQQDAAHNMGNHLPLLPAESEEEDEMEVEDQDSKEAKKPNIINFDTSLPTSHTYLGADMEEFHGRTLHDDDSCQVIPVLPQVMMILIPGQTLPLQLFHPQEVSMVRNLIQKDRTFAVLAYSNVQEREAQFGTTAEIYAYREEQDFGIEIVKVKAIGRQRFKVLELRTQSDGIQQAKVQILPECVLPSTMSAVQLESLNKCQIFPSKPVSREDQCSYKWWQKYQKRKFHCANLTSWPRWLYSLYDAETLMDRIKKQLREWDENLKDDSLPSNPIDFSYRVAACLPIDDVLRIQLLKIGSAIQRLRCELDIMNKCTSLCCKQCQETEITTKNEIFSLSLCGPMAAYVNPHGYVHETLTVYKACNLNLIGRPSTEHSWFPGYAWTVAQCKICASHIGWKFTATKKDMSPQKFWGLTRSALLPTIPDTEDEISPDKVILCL
T1 sequence (Q16531 whole entry partner): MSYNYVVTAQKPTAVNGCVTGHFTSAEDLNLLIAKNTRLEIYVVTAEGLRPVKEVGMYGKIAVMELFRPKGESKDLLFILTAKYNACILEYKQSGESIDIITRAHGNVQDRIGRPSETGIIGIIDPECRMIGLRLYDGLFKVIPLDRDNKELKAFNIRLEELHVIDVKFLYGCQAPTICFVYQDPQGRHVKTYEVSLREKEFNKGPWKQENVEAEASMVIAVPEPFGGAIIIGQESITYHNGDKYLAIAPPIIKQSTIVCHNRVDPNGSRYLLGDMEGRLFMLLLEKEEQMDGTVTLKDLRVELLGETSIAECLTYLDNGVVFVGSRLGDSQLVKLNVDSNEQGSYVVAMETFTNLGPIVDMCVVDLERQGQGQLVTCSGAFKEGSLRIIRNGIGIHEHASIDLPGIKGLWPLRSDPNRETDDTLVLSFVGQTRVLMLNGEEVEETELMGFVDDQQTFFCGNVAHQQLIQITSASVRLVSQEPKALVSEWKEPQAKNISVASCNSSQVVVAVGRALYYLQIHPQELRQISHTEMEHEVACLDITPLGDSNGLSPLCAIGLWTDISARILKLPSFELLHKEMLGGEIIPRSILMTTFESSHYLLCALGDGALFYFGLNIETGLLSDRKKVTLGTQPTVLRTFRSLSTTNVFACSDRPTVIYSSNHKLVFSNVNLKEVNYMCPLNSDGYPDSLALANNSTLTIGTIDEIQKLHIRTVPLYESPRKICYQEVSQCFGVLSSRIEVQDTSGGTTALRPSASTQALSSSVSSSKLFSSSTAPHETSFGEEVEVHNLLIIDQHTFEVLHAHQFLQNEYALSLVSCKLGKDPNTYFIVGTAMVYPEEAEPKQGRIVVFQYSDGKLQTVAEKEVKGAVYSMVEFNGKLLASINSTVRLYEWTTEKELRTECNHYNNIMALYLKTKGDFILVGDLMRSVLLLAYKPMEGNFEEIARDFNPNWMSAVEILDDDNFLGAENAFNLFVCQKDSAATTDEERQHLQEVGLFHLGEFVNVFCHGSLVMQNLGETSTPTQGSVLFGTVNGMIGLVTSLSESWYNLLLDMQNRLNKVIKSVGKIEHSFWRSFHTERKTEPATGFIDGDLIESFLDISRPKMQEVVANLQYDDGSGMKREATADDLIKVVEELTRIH
T3 sequence (P48729 whole entry): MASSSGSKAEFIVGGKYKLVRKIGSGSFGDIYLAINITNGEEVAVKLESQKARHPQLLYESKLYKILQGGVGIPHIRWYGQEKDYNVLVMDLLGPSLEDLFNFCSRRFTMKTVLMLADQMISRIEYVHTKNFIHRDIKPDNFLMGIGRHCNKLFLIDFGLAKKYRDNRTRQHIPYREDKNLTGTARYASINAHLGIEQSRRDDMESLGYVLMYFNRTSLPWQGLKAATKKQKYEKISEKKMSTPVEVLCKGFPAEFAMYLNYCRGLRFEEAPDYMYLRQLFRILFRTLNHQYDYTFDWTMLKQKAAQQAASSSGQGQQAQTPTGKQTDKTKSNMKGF
T3 sequence (Q96SW2 whole entry): as the sequence (Q96SW2 whole entry) above
T3 sequence (Q16531 whole entry partner): as the sequence (Q16531 whole entry partner) above
T2 sequence (Q13422 141-196 Q146F): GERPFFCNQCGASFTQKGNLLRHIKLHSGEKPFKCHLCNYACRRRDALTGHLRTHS

In the case of Cc1ncccc1N1CCN(Cc2ccc3c(c2)CN(C2CCC(=O)NC2=O)C3=O)CC1 (stereo not shown) [Compound C, 3-(5-((4-(2-methylpyridin-3-yl)piperazin-1-yl)methyl)-1-oxoisoindolin-2-yl)piperidine-2,6-dione], the “Ymin (%)” value [1] is reported as 86%, the DC50 ([1]; Helios, Jurkat/Helios/HiBit cells, 18 hr, read-out: EC50 (the source's name)) is reported as > 10000 nM and the “levels of tagged CAR” value [2] is reported as “remained identical to untagged CAR”. For the same compound, the “Ymin (%)” value [3] was 98%, the DC50 ([3]; CK1a, MDS-L cells, 4 hours, read-out: EC50 (the source's name)) was > 10000 nM and the “selectivity for the Q1F degron (in words)” value [4] was “highly selective for the Q1F degron”. The “Ymin (%)” value ([5]; Degron Q1F (from Table 1), minimum percent protein remaining) was 12%, the DC50 ([5]; Degron Q1F (from Table 1), read-out: EC50 (the source's name)) was 23 nM and the DC50 ([5]; Jurkat assay described in Example 5, read-out: EC50 for the Q1F degron) was < 25 nM. For the same compound, the “Ymin (Q1F degron)” value ([5]; Jurkat cells, 18 hours, CAR levels normalized to no drug) was 12%, the DC50 ([5]; Jurkat cells, 18 hours, CAR levels normalized to no drug, read-out: EC50 (Q1F degron)) was 23 nM and the “effector function of primary CAR T cells (killing and cytokine production)” value [6] was “could be titrated”. The “surface levels of ZNF2_3 Q1F-tagged CAR” value [7] was “could be titrated”.
